Test results from patent publication US20090203708A1, “NOVEL SUBSTITUTED-1-H-QUINAZOLINE-2,4-DIONE DERIVATIVES, PREPARATION METHOD THEREOF AND PHARMACEUTICAL COMPOSITION CONTAINING THE SAME” (Korea Research Institute of Chemical Technology, priority 2006, published 2009).

How the values were obtained:
5-HT6 receptors = 5-HT6 receptors (Homo sapiens, UniProt P50406); conditions: human 5-HT6 receptors, literature; cited from earlier work
D2 (hD2L receptor) = target: T1, D2 (hD2L receptor) (Homo sapiens, UniProt P14416); experiment: Radioligand binding assay, dopamine D2; conditions: [3H] spiperone 1 nM; read-out: Binding affinity IC50 D2
T1 construct: purchased BioSignal Packard Inc., Montreal, Canada
T1 sequence (P14416 whole entry): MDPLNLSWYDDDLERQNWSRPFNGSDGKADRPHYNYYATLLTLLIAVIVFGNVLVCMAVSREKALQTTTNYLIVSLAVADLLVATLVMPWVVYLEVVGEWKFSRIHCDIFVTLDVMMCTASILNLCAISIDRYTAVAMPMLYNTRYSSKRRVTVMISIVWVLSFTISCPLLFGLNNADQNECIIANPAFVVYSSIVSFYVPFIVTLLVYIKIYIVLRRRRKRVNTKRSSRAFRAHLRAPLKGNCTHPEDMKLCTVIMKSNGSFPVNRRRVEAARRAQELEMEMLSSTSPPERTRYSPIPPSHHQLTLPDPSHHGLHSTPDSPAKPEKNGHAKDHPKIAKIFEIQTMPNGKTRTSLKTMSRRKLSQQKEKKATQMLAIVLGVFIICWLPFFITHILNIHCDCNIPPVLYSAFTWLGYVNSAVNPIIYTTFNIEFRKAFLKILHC
In short: (§1)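 Competition binding used human receptor membranes: hD2L with 1 nM [3H]spiperone, and hD4.2 with 0.06 nM [3H]YM-09151-2 in Tris-HCl pH 7.4 with Mg/EDTA/K/Ca. Nonspecific binding was defined with 10 μM haloperidol for D2 and 10 μM clozapine for D4. IC50 was fitted by nonlinear regression from 7–8 concentrations in duplicate, across three assays.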

D4 (hD4.2 receptor) = target: T2, D4 (hD4.2 receptor) (Homo sapiens, UniProt P21917, DEL265-296); experiment: Radioligand binding assay, dopamine D4; conditions: [3H] YM-09151-2 0.06 nM; read-out: Binding affinity IC50 D4
T2 construct: purchased BioSignal Packard Inc., Montreal, Canada
T2 sequence (P21917 with tags, fused parts or gaps DEL265-296): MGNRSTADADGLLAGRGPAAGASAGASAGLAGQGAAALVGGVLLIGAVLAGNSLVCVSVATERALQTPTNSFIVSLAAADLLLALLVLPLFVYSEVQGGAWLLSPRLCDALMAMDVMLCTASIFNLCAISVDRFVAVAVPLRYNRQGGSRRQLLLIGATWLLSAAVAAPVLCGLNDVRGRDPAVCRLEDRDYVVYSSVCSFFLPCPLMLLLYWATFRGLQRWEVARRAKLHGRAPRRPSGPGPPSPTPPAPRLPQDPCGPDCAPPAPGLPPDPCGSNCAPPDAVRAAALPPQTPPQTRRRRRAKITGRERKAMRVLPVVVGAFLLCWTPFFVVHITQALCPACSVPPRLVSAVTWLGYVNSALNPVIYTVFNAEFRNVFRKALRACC
In short: as §1

[1] = target: T3, HeLa cells transfected with human 5-HT6 receptor (Homo sapiens, UniProt P50406); experiment: Serotonin-stimulated cAMP accumulation in HeLa cells (EIA); assay type: cell-based
T3 construct: expressed in transfected cells; host or cells: HeLa
T3 sequence (P50406 whole entry): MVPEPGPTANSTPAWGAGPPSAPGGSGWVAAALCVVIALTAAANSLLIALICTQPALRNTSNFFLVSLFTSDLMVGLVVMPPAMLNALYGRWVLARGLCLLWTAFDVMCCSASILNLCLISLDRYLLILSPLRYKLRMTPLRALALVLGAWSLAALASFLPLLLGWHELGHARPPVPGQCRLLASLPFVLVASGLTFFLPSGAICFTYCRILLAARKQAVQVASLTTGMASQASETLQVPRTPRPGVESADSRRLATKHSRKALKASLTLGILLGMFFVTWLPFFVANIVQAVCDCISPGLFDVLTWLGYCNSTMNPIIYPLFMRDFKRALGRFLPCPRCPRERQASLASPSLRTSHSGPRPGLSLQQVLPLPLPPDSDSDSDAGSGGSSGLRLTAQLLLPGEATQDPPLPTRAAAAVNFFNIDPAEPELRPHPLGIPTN

rotarod deficit = experiment: Rotarod deficit in mice; assay type: in vivo; conditions: for Rotarod Deficit TD50: mice, i.p. 30 min before testing
Experimental: In order to examine the effects of the compounds of the present invention on the central nervous system and behavior, a rotarod test was performed as follows.
Mice were placed on a plastic rod having a node 1 inch in diameter (Ugo-Basile, Milano, Italy), followed by rotating the rod at a speed of 6 rpm. 30, 60, 90 and 120 min after the administration of test compounds, the mice that fell from the rotating rod within 1 min were counted to determine rotarod deficits (%) (Dunham et al., 1957).

lethality = experiment: Lethality (LD50) in mice; assay type: in vivo; conditions: i.p.
[2] = target: 5-HT7 (human recombinant receptor, CHO-K1) (Homo sapiens, UniProt P34969); experiment: Radioligand binding assay, 5-HT7
5-HT7 (human recombinant receptor, CHO-K1), sequence (P34969 whole entry): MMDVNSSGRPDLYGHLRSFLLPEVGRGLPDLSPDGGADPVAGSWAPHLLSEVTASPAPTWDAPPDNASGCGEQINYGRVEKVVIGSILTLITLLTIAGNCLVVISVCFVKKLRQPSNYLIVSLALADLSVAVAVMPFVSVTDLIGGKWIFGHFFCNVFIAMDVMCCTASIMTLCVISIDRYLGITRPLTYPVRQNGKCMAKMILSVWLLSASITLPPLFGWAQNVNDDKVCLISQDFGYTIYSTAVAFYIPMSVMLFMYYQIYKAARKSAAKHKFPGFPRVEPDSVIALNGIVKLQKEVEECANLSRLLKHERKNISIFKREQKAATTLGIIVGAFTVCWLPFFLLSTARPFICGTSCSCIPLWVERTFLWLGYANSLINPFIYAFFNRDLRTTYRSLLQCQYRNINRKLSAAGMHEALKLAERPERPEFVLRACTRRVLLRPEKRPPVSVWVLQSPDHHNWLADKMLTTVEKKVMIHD

[3] = target: T4, 5-HT1a (human recombinant receptor, CHO-K1) (Homo sapiens, UniProt P08908); experiment: Radioligand binding assay, 5-HT1a
T4 sequence (P08908 1-422): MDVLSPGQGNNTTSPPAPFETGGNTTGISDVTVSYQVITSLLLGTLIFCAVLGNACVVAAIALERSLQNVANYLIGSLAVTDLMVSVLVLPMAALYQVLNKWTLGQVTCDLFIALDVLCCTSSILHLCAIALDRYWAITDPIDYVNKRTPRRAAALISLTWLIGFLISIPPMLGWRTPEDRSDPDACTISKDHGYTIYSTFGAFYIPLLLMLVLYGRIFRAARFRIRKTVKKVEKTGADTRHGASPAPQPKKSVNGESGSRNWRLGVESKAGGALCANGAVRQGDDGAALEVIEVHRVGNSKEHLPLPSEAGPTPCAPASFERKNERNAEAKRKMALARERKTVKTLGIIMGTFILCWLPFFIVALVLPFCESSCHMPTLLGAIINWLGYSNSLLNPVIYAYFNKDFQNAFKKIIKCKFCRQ

[4] = target: 5-HT2a (human recombinant receptor, CHO-K1) (Homo sapiens, UniProt P28223); experiment: Radioligand binding assay, 5-HT2a
5-HT2a (human recombinant receptor, CHO-K1), sequence (P28223 whole entry): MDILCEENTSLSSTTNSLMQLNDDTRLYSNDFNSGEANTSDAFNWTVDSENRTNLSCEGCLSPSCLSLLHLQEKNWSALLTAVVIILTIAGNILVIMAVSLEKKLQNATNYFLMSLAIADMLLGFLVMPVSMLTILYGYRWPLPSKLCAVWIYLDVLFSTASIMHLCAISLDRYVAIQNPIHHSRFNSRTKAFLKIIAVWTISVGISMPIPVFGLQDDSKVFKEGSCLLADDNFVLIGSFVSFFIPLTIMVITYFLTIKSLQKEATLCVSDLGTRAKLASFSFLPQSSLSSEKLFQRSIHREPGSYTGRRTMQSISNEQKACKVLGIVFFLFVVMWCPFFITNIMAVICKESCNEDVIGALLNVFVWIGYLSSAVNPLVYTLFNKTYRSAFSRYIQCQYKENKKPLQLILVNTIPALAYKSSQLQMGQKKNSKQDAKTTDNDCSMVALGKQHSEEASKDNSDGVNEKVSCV

[5] = target: T5, 5-HT2c (human recombinant receptor, CHO-K1) (Homo sapiens, UniProt P28335); experiment: Radioligand binding assay, 5-HT2c
T5 sequence (P28335 33-458): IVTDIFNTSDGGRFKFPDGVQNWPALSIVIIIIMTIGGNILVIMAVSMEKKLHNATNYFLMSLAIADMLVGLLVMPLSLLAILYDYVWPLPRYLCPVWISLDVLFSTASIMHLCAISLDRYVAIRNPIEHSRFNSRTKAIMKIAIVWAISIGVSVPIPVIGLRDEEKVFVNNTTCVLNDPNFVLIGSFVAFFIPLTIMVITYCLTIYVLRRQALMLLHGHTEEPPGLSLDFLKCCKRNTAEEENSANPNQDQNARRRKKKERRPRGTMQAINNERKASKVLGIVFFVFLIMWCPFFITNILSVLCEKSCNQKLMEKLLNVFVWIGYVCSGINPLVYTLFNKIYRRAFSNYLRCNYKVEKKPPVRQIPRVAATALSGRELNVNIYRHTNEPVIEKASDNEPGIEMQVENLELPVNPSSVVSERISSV

D1 receptor = D1 receptor (Homo sapiens, UniProt P21728); experiment: Radioligand binding assay, dopamine D1
D1 receptor, sequence (P21728 whole entry): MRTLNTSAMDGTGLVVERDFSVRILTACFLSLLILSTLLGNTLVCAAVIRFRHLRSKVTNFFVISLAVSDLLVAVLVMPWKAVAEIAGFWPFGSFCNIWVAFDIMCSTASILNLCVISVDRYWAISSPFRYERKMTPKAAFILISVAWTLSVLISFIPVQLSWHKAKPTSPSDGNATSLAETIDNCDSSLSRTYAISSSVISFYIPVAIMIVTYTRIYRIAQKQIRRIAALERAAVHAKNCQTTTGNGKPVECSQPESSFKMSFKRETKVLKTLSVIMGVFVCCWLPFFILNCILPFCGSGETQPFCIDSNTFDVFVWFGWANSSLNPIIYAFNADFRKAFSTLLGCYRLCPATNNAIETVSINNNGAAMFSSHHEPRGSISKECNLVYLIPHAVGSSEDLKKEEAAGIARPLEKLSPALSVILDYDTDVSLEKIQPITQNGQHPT

D3 (hD3 receptor) = D3 (hD3 receptor) (Homo sapiens, UniProt P35462); experiment: Radioligand binding assay, dopamine D3
D3 (hD3 receptor), sequence (P35462 whole entry): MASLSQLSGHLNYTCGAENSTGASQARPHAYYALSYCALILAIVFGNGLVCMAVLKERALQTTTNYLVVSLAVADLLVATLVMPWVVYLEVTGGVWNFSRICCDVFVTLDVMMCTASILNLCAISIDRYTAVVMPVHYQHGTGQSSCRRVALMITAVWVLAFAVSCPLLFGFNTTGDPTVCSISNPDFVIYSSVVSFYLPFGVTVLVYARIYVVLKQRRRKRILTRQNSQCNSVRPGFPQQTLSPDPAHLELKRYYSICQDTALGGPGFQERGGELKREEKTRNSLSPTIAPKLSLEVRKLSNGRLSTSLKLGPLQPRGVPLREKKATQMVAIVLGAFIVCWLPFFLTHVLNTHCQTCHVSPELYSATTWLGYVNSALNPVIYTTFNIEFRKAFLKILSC

[6] = test system: apomorphine-induced PPI disruption; experiment: Apomorphine-induced PPI disruption in rat
[7] = target: human serotonin 5-HT6 receptor (Homo sapiens, UniProt P50406); experiment: [3H]LSD binding assay for cloned 5-HT6 receptors
human serotonin 5-HT6 receptor, sequence (P50406 whole entry): as the sequence (P50406 whole entry) above

[8] = test system: retention of a previously learned task; conditions: rats, literature; cited from earlier work
[9] = test system: extracellular glutamate levels in the frontal cortex and dorsal hippocampus; conditions: literature; cited from earlier work
[10] = test system: rat maximal electroseizure threshold; conditions: literature; cited from earlier work
[11] = test system: yawning, stretching, and chewing; conditions: rats, literature; cited from earlier work
food intake = conditions: literature; cited from earlier work

5-HT6 receptors, sequence (P50406 whole entry): as above

In the case of `COc1ccc2c(c1)c(CCN(C)C)cn2S(=O)(=O)c1ccccc1` [MS-245], the “pA2, antagonist” value (5-HT6 receptors) is given as 8.88.

For `C[C@H](c1ccccc1)n1c(=O)c2c(N3CCN(C)CC3)cc(Cl)cc2n(Cc2ccccc2)c1=O` [Example 40, 1-benzyl-7-chloro-5-(4-methyl-piperazin-1yl)-3-[(R)-1-phenyl-ethyl]-1H-quinazoline-2,4-dione], the IC50 (D2 (hD2L receptor)) was > 10000 nM, the IC50 (D4 (hD4.2 receptor)) was > 10000 nM and the cytotoxicity [1] was “did not show any cytotoxicity at all”. The “effect on serotonin-stimulated cAMP accumulation (in words)” value ([1]; HeLa cells, FIG. 1) was “inhibited serotonin-stimulated cAMP accumulation in a dose-dependent manner”, the inhibition at 0.001 µM ([1]; HeLa, read-out: inhibition of cAMP increase induced by 0.3 μM serotonin, compound 0.001 μM) was 0% and the inhibition at 0.01 µM ([1]; HeLa, read-out: inhibition of cAMP increase induced by 0.3 μM serotonin, compound 0.01 μM) was 35%. For the same compound, the inhibition at 0.1 µM ([1]; HeLa, read-out: inhibition of cAMP increase induced by 0.3 μM serotonin, compound 0.1 μM) was 95%, the inhibition at 1 µM ([1]; HeLa, read-out: inhibition of cAMP increase induced by 0.3 μM serotonin, compound 1 μM) was 100% and the inhibition at 10 µM ([1]; HeLa, read-out: inhibition of cAMP increase induced by 0.3 μM serotonin, compound 10 μM) was 100%. The “Rotarod Deficit TD50” value (rotarod deficit) was 139 mg/kg, ip, the rotarod dysfunction (rotarod deficit; mouse, in vivo, ip, 150 mg/kg, 120 min) was 75% and the “Lethal Degrees LD50” value (lethality) was >300 mg/kg, ip. For the same compound, the IC50 [2] was 7420 nM, the IC50 [3] was 4350 nM and the IC50 [4] was 266 nM. The IC50 [5] was 477 nM, the IC50 (D1 receptor) was 2710 nM and the IC50 (D3 (hD3 receptor)) was 983 nM. For the same compound, the “effect of compound alone on PPI versus vehicle control” value ([6]; rat, 2.5, 5, 10 and 20 mg/kg i.p. alone) was “no significant effects”, the “mean startle amplitude versus apomorphine positive control” value ([6]; rat, given 30 min before apomorphine) was “did not induce significant difference in mean startle amplitude” and the “effect of pretreatment on apomorphine-induced PPI disruption” value ([6]; rat, i.p. 30 min before apomorphine (2 mg/kg, i.p.), 2.5, 5, 10 and 20 mg/kg) was “found to inhibit apomorphine (2 mg/kg, i.p.)-induced PPI disruption”. For the same compound, the IC50 [7] was 1.6 nM.

In the case of `COc1ccc(NS(=O)(=O)c2sc3ccc(Cl)cc3c2C)cc1N1CCNCC1` [SB-271046, reference compound], the “Rotarod Deficit TD50” value (rotarod deficit) is listed as 112 mg/kg, ip, the “retention of a previously learned task in water maze” value [8] is listed as “significant improvement in retention of a previously learned task” and the “extracellular glutamate levels in the frontal cortex and dorsal hippocampus” value [9] is listed as “increased extracellular glutamate levels in the frontal cortex and dorsal hippocampus by several times”. The anticonvulsant activity [10] was “possess anticonvulsant activity”.

For `CNc1cc(NS(=O)(=O)c2ccc(N)cc2)nc(NC)n1` [Ro 04-6790], the anticonvulsant activity [10] is listed as “possess anticonvulsant activity”, the “induction of yawning, stretching, and chewing behavior” value [11] is listed as “capable of inducing this same effect” and the “food intake by rats” value (food intake) is listed as “decreased food intake”.
